Reference: patent US11753446B2, “Beta-hairpin peptidomimetics” (POLYPHOR AG, priority 2014, dated 2023)
Where a SMILES comes first, the peptide text is derived from it. [ ]: non-standard residue; d: D form. Tle = CC(C)(C)[C@H](N)C(=O)O; dDab = NCC[C@@H](N)C(=O)O; Orn = NCCC[C@H](N)C(=O)O; Dab = NCC[C@H](N)C(=O)O; Dap = NC[C@H](N)C(=O)O

Tests used:
[1] = system: Acinetobacter baumannii DSM 30008; type: cell-based; details: DSM 30008
Method in brief: (§1)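 Peptide activity was tested by NCCLS broth microdilution with slight modifications. Bacteria were diluted in cation-adjusted Mueller-Hinton II broth to approximately 10^6 CFU/mL against a 0.5 McFarland standard. They were then exposed to two-fold serial peptide dilutions in broth containing 0.002% final polysorbate 80.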

[2] = system: Klebsiella pneumoniae ATCC 13883; type: cell-based; details: ATCC 13883
Method in brief: as §1

[3] = system: Escherichia coli ATCC 25922; type: cell-based; details: ATCC 25922
Method in brief: as §1

[4] = system: human red blood cells (hRBC); assay: Hemolysis: hemolytic activity at 100 μg/mL, 1 h at 37° C.; details: red cells of human, 1 h, 100
Method in brief: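 Peptides at 100 μg/mL incubated with washed 20% (v/v) human erythrocytes (~0.9×10^9 cells/mL) for 1 h at 37 °C with shaking. Released hemoglobin read at OD 540 nm in supernatant; 0% and 100% lysis from PBS/0.001% acetic acid and 2.5% Triton X-100.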

Structure (SMILES)	Acinetobacter baumannii DSM 30008 MIC [1] [µg/mL]	Klebsiella pneumoniae ATCC 13883 MIC [2] [µg/mL]	Escherichia coli ATCC 25922 MIC [3] [µg/mL]	Hemolysis at 100 μg/mL [4] [%]
C[C@@H]1NC(=O)[C@H](C(C)(C)C)NC(=O)[C@H](CCN)NC(=O)[C@H](Cc2c[nH]c3ccccc23)NC(=O)[C@H](CCN)NC(=O)[C@@H](CCN)NC(=O)[C@H](CCCN)NC(=O)[C@H](CCN)NC(=O)[C@H](Cc2ccc(O)cc2)NC(=O)[C@H](CN)NC(=O)[C@H](Cc2ccccc2)NC(=O)[C@@H]2CCCN2C(=O)[C@@H](CCN)NC(=O)[C@H](CO)NC1=O [Example 50, cyclo(-Phe-Dap-Tyr-Dab-Orn-^DDab-Dab-Trp-Dab-tBuGly-Ala-Ser-^DDab-Pro-)] (cyclo(AS[dDab]PF[Dap]Y[Dab][Orn][dDab][Dab]W[Dab][Tle]))	2	0.5	1	11
CC(C)C[C@@H]1NC(=O)[C@H](CCCNC(=N)N)NC(=O)[C@@H](CCN)NC(=O)[C@H](Cc2ccc(O)cc2)NC(=O)[C@@H]2CSSC[C@H](NC1=O)C(=O)N[C@@H](Cc1ccc(O)cc1)C(=O)N[C@@H](C(C)C)C(=O)N[C@@H](CCCN)C(=O)N[C@H](CCN)C(=O)N[C@@H](CCN)C(=O)N[C@@H](Cc1c[nH]c3ccccc13)C(=O)N[C@@H](Cc1ccc(O)cc1)C(=O)N[C@@H](Cc1ccc(O)cc1)C(=O)N2 [Example 22, cyclo(-Leu-Cys-Tyr-Val-Orn-^DDab-Dab-Trp-Tyr-Tyr-Cys-Tyr-^DDab-Arg-)] (HELM PEPTIDE1{C.Y.V.[Orn].[NCC[C@@H](N[*:1])C(=O)[*:2]].[Dab].W.Y.Y.C.Y.[NCC[C@@H](N[*:1])C(=O)[*:2]].R.L}$PEPTIDE1,PEPTIDE1,1:R3-10:R3|PEPTIDE1,PEPTIDE1,1:R1-14:R2$$$V2.0)	0.5	1	0.5	6
CC(C)C[C@@H]1NC(=O)[C@H](CCCNC(=N)N)NC(=O)[C@@H](CCN)NC(=O)[C@H](C(C)C)NC(=O)[C@@H]2CSSC[C@H](NC1=O)C(=O)N[C@@H](Cc1ccc(O)cc1)C(=O)N[C@@H](C)C(=O)N[C@@H](CCCN)C(=O)N[C@H](CCN)C(=O)N[C@@H](CCN)C(=O)N[C@@H](Cc1ccccc1)C(=O)N[C@@H](C)C(=O)N[C@@H](Cc1ccc(O)cc1)C(=O)N2 [Example 19, cyclo(-Leu-Cys-Tyr-Ala-Orn-^DDab-Dab-Phe-Ala-Tyr-Cys-Val-^DDab-Arg-)] (HELM PEPTIDE1{A.[Orn].[NCC[C@@H](N[*:1])C(=O)[*:2]].[Dab].F.A.Y.C.V.[NCC[C@@H](N[*:1])C(=O)[*:2]].R.L.C.Y}$PEPTIDE1,PEPTIDE1,8:R3-13:R3|PEPTIDE1,PEPTIDE1,1:R1-14:R2$$$V2.0)	1	1	0.5	1
CC(C)C[C@@H]1NC(=O)[C@H](CCCNC(=N)N)NC(=O)[C@@H](CCN)NC(=O)[C@H](Cc2ccc(O)cc2)NC(=O)[C@@H]2CSSC[C@H](NC1=O)C(=O)N[C@@H](Cc1ccc(O)cc1)C(=O)N[C@@H](C)C(=O)N[C@@H](CCCN)C(=O)N[C@H](CCN)C(=O)N[C@@H](CCN)C(=O)N[C@@H](Cc1c[nH]c3ccccc13)C(=O)N[C@@H](C)C(=O)N[C@@H](Cc1ccc(O)cc1)C(=O)N2 [Example 17, cyclo(-Leu-Cys-Tyr-Ala-Orn-^DDab-Dab-Trp-Ala-Tyr-Cys-Tyr-^DDab-Arg-)] (HELM PEPTIDE1{A.[Orn].[NCC[C@@H](N[*:1])C(=O)[*:2]].[Dab].W.A.Y.C.Y.[NCC[C@@H](N[*:1])C(=O)[*:2]].R.L.C.Y}$PEPTIDE1,PEPTIDE1,8:R3-13:R3|PEPTIDE1,PEPTIDE1,1:R1-14:R2$$$V2.0)	0.5	1	0.5	4
